Data as given in patent publication US20240315991A1, “USES OF HNF4 ALPHA AGONISTS” (Sanford Burnham Prebys Medical Discovery Institute, priority 2023, published 2024).
“Also recorded” adds a separate entry of the source.

Tests used:
[1] = system: total cellular nicotinamide adenine dinucleotide (NAD); test: Nicotinamide adenine dinucleotide assay in liver lysate; format: in vivo, mouse; details: HFD+NCT vs HFD, 10 weeks
Method: (§1) NCT oral administration. Four-week-old male C57BL/6J (JAX cat #000664) mice were purchased from Jackson laboratory and were maintained in a 12 h light/dark cycle throughout the experiment. Prior to the experiments, mice were acclimated for 2 weeks. Six-week-old mice with similar body weights were randomized to a normal diet (NC), a high fat diet (HFD) (Research Diets, cat #D12492 60 kcal % fat) or HFD containing 4000 ppm NCT (HFD+NCT) (Research Diets, 60 kcal % fat+4000 ppm NCT), which was calculated to provide approximately 400 mg/kg/d NCT. HFD chow containing NCT was made with gray dye to distinguish it from regular HFD chow that had green dye. Mice for each treatment group were placed in separate cages. Equal amounts of fresh chow were provided every week to all mice. Body weight gain and food intake were measured every week for 10 weeks. After 10 weeks of chow treatment, mice were sacrificed for analysis. All animal experiments were approved by the Institutional Animal Care and Use Committee (IACUC) of the Sanford Burnham Prebys Medical Discovery Institute in accordance with national regulations. Sample size was chosen based on the prior study of NCT delivered by IP injection.
Nicotinamide adenine dinucleotide assay. Total NAD level in liver lysate was analyzed according to manufacturer's instructions using a calorimetric NAD+/NADH assay kit (Cat #MET-5014, Cell Biolabs, Inc. USA). […]

PPARGC1A(PGC1a) = test: Western blotting of liver, PPARGC1A(PGC1a); format: in vivo, mouse; details: HFD+NCT vs HFD, FIGS. 4A-4C
Method: as §1
Western blotting. Mouse liver extracts were prepared by incubation in RIPA buffer (Invitrogen) containing protease inhibitors (Calbiochem, SanDiego, CA). Protein was quantified by BCA assay (Thermo Scientific). […]

SDHA mRNA [2] = test: RT-PCR of mouse liver, SDHA; format: in vivo; details: HFD+NCT vs HFD, FIGS. 3G and 3H
Method: as §1, with “All animal experiments were approved by the Institutional Animal Care and Use Committee (IACUC) of the Sanford Burnham Prebys Medical Discovery Institute in accordance with national regulations. Sample size was chosen based on the prior study of NCT delivered by IP injection.” left out
(§2) RT-PCR. […] Quantitative real time PCR (RT-PCR) analysis was performed using SYBR® Select Master Mix (Applied Biosystems) and an ABI 7900HT thermal cycler (Applied Biosystems, Thermo Fisher Scientific). Ct values were normalized to 18s rRNA and are expressed as fold change over samples from mice fed NC or cultured human hepatocytes without NCT.

[3] = system: DNA encoding the mitochondrial genes 16s rRNA; test: Mitochondrial DNA analysis of liver, 16s rRNA; format: in vivo; details: mouse liver, HFD+NCT vs HFD, FIG. 3L
Method: as §1
Quantification of mtDNA was performed. […]

PPARGC1A mRNA = test: RT-PCR of mouse liver, PPARGC1A; format: in vivo; details: HFD+NCT vs HFD, FIGS. 4A-4C
Method: as §1, with “All animal experiments were approved by the Institutional Animal Care and Use Committee (IACUC) of the Sanford Burnham Prebys Medical Discovery Institute in accordance with national regulations. Sample size was chosen based on the prior study of NCT delivered by IP injection.” left out
as §2

IL-6 mRNA [4] = test: RT-PCR of mouse liver, IL-6; format: in vivo; details: HFD+NCT vs HFD, FIG. 5A
Method: as §1, with “All animal experiments were approved by the Institutional Animal Care and Use Committee (IACUC) of the Sanford Burnham Prebys Medical Discovery Institute in accordance with national regulations. Sample size was chosen based on the prior study of NCT delivered by IP injection.” left out
as §2

SDHA mRNA [5] = test: RT-PCR of primary human hepatocytes, SDHA; format: cell-based; details: HEP-fat media, NCT 5, 15, and 40 μM, FIGS. 3I and 3J
Method: (§3) Primary human hepatocytes. Experiments with primary human hepatocytes were performed by CN-Bio (Cambridge, UK). Briefly, primary human hepatocytes (PHHs), human Kupffer cells (HKs) and human stellate cells (HSCs) were seeded onto CN-Bio's PhysioMimix LC12 MPS culture plates at 6×10^5 cells for PHHs and 6×10^4 cells for HKs and HSCs in 1.6 ml of CN-Bio's HEP-lean media with 5% FCS. Throughout the experiment the cells were maintained at a flow rate of 1 μl/s. After 24 hours (Day 1) of seeding, the media was changed to HEP-lean media and the cells were incubated until day 4 to allow the cells to form microtissues. At day 4 post seeding, media was changed to HEP-fat media and treated with DMSO or NCT (5, 15, and 40 μM). Media was replaced on days 6 and 8. Cells were harvested on day 10 for RNA extraction and culture media was collected for ELISA analysis.
as §2

Sirt1 mRNA = test: RT-PCR of primary human hepatocytes, Sirtuin1; format: cell-based; details: HEP-fat media, NCT 5, 15, and 40 μM, FIG. 4G
Method: as §3, §2

Sirt3 mRNA = test: RT-PCR of primary human hepatocytes, Sirtuin3; format: cell-based; details: HEP-fat media, NCT 5, 15, and 40 μM, FIG. 4H
Method: as §3, §2

IL-6 mRNA [6] = test: RT-PCR of primary human hepatocytes, IL-6; format: cell-based; details: HEP-fat media, NCT 5, 15, and 40 μM, FIG. 5E
Method: as §3, §2

TNFα mRNA = test: RT-PCR of primary human hepatocytes, TNFα; format: cell-based; details: HEP-fat media, NCT 5, 15, and 40 μM, dose-responsive manner, FIG. 5F
Method: as §3, §2

IL-6 protein = test: ELISA of culture media of primary human hepatocytes, IL-6; format: cell-based; details: HEP-fat media, NCT 5, 15, and 40 μM, FIG. 5D
Method: as §3

cytochrome C mRNA = test: RT-PCR of primary human hepatocytes, cytochrome C; format: cell-based; details: 0 μM vs. each concentration of NCT, FIG. 3I
Method: as §3, §2

[7] = cited from earlier work
[8] = system: mice maintained on a 60% fat calorie diet; details: intraperitoneal injection for 2 weeks; cited from earlier work

## O=C(/C=C/c1ccc(O)c(O)c1)NCCc1ccc(O)cc1 [NCT, N-trans caffeoyltyramine]
[1]
  total cellular NAD in liver: increased; also recorded: substantial increase
PPARGC1A(PGC1a)
  PPARGC1A(PGC1a) protein level in mouse liver: increase
SDHA mRNA [2]
  SDHA mRNA in mouse liver: increase
[3]
  level of DNA encoding the mitochondrial genes 16s rRNA: increase
PPARGC1A mRNA
  PPARGC1A(PGC1a) mRNA level in mouse liver: increase
IL-6 mRNA [4]
  IL-6 level in livers of mice on HFD: decreased
IL-6 mRNA [4]; listed as Compound A
  IL-6 level in livers of mice on HFD: decrease
SDHA mRNA [5]
  SDHA mRNA in human hepatocytes: increase
Sirt1 mRNA
  Sirt1 mRNA in primary human hepatocytes: reverse the depression
Sirt3 mRNA
  Sirt3 mRNA in primary human hepatocytes: reverse the depression
IL-6 mRNA [6]
  IL-6 mRNA level in cultured human hepatocytes: decrease
TNFα mRNA
  TNFα mRNA level in cultured human hepatocytes: decrease
IL-6 protein
  IL-6 protein level secreted by cultured human hepatocytes: decrease
Cytochrome C mRNA
  cytochrome C mRNA levels in primary human hepatocytes: non-significant
[7]
  oral bioavailability: poor
[8]
  body weight loss: no body weight loss
  fat stored in liver: reduce
